Here are results for 13 molecules from patent publication US5376679A, “Bicyclic or tricyclic biocidal compounds” (Shell Internationale Research Maatschappij B.V., priority 1988, dated 1994).

Values after ≈ are worked out from the molar mass of the structure shown.

What all share (format): in vivo
Test [1] concerns Alternaria Solani. The test is described as follows: Direct protectant activity against tomato early blight (As). On As: activity against tomato early blight: dose 1000 g/ha. The arrangement: As: activity against tomato early blight: scale not given here. As to conditions: for As: activity against tomato early blight: foliar spray as under (a), 8 days, activity grade 1 or 2, not defined.
Test [2] relates to Puccinia Recondita. The test is described as follows: Direct protectant activity against wheat brown rust (Pr). The arrangement: scale not given here. The conditions noted are these: foliar spray, 1 kg/ha, 10 days; activity grade 1 or 2, not defined. The protocol: (i) Activity Against Wheat Brown Rust (Puccinia Recondita; Pr) The test is a direct protectant one using a foliar spray. […] The plants are then sprayed with the test compound at a dosage of 1 kg/ha using a track sprayer as described under (a). Test compounds are applied as solutions or suspensions in a mixture of acetone and water (50:50 v/v) containing 0.04% surfactant ("TWEEN 20"--Trade Mark). 18-24 hours after treatment, the seedlings are inoculated by spraying the plants from all sides with an aqueous spore suspension containing about 10^5 spores/ml. For 18 hours after inoculation, the plants are kept in high humidity conditions at a temperature of 20°-22° C. Thereafter, the plants are kept in ambient glasshouse conditions, that is, in moderate relative humidity and at a temperature of 20° C. The disease is assessed 10 days after inoculation on the basis of the percentage of the plant covered by sporulating pustules compared with that on the control plants.

Test [3] deals with Plasmopara viticola. The experiment in a line: Direct protectant activity against vine downy mildew (Pvp). On the set-up: Pvp: direct protectant activity against vine downy mildew: scale not given here. The conditions noted are these: foliar spray, 1 kg/ha; activity grade 1 or 2, not defined. The method in brief: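 Lower leaf surfaces of whole vine plants (cv Cabernet Sauvignon) were sprayed at 1 kg/ha in water/acetone with surfactant, then inoculated 24 h later with 10^4 zoosporangia/ml. Scored as % leaf area with sporulation versus control leaves.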

In test [4] the test system is Leptosphaeria nodorum. The test is described as follows: Direct antisporulant activity against wheat leafspot (Ln). On the set-up: scale not given here. As to conditions: foliar spray, 1 kg/ha; activity grade 1 or 2, not defined. The method in brief:
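Single-leaf wheat plants were spray-inoculated with 8×10^5 spores/ml and held 24 h at high humidity before foliar spray treatment. Plants were then kept 5 days in the glasshouse. Read-out is the percentage of leaf area sporulating, relative to untreated controls.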

Test [5] has as its system Plasmopara viticola. The experiment in a line: Translaminar protectant test, vine downy mildew (Pvt). The conditions noted are these: secondary screening. The text has this: The fungicidal activity of certain of the compounds was investigated further, in secondary screening.
Test [6] deals with Botrytis cinerea. The test is described as follows: Direct protectant activity against vine grey mould (Bcp). As to conditions: for Bcp: direct protectant activity against vine grey mould: foliar spray, 1 kg/ha, activity grade 1 or 2, not defined. The text has this: (b) Direct Protectant Activity Against Vine Grey Mould (Botrytis cinerea; Bcp) The test is a direct protectant one using a foliar spray and is effected as described under (a), with the difference that the leaves are inoculated by spraying with an aqueous solution containing 10^5 conidia/ml.

Test [7] relates to Erysiphe graminis f.sp. hordei. The test is described as follows: Direct antisporulant activity against barley powdery mildew (Eg). The arrangement: scale not given here. The conditions noted are these: foliar spray, 1 kg/ha; activity grade 1 or 2, not defined. A digest of the protocol: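 Barley seedlings (cv. Golden Promise) were dusted with conidia one day before a foliar spray of compound. Plants were then held at ambient glasshouse conditions for up to 7 days. Sporulating leaf area (%) was scored against untreated control plants.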

For test [8], the system named is Plasmopara viticola. The experiment in a line: Antisporulant activity against vine downy mildew (Pva). The conditions noted are these: foliar spray, 1 kg/ha; activity grade 1 or 2, not defined. The protocol:
(j) Antisporulant Activity Against Vine Downy Mildew (Plasmopara viticola; Pva)
The test is a direct antisporulant one using a foliar spray. The lower surfaces of leaves of whole vine plants (cv Cabernet Sauvignon) are inoculated by spraying with an aqueous suspension containing 10^4 zoosporangia/ml 2 days prior to treatment with the test compound. The inoculated plants are kept for 24 hours in a high humidity compartment, and then 24 hours at glasshouse ambient temperature and humidity. When the plants are dry, infected leaves are sprayed on their lower surfaces with a solution of active material in 1:1 water/acetone containing 0.04% w/w "Triton X-155" (trade mark) (an octylphenol polyethoxylate surfactant). The spraying is carried out with a moving track sprayer with delivers 620 liter/ha, and the concentration of active material is calculated to give an application rate of 1 kg/ha. After spraying, the plants are returned to normal glasshouse conditions for 96 hours and are then transferred to the high humidity compartment for 24 hours to induce sporulation, prior to assessment. Assessment is visual and is based on the percentage of the leaf area covered by sporulation compared with that on control leaves.

The test system of test [9] is rice root nematode Meloidogyne graminicola. The experiment in a line: Nematicidal water screen. As to conditions: for activity against the nematodes, water screen: nematodes retained in dilute aqueous solution. The protocol:
(§1) The nematicidal activity of the compounds of Example 17 and 23 was investigated. They were tested against the rice root nematode Meloidogyne graminicola in a water screen whereby the effect of retaining the nematodes in a dilute aqueous solution of the compounds was studied, and in a soil drench test in which the propensity of these nematodes to cause knots in the roots of grain sorghum S. bicolor was studied as a function of concentration of the compounds applied to the soil. […] Thus in the water screen test it was determined that the minimum inhibitory concentration of the compound of Example 23 was 0.53 ppm.

For test [10] the test system is unchanged. The experiment in a line: Nematicidal soil drench test (root knots in grain sorghum). As to conditions: knots in roots of grain sorghum S. bicolor. The protocol:
as §1

In the case of `N#CN=[N+]([O-])c1ccc2oc(=O)ccc2c1` [Example 1], in test [1], the “As: activity against tomato early blight” value was determined as 2. The “activity against As” value in test [1] (secondary screening) was “high activity”. Moreover, the “Pr: activity against wheat brown rust” value in [2] was determined as 2. Also, the “Pvp: direct protectant activity against vine downy mildew” value (“Pvp: direct protectant activity” for short) in test [3] is listed as 2. Also, the “Ln: activity against wheat leafspot” value in test [4] is listed as 1. The “activity against Pvt” value in test [5] is “high activity”. The “Bcp: direct protectant activity against vine grey mould” value (shortened to “Bcp: direct protectant activity”) in test [6] was 1.

On to `CC1(C)Cc2cc(Cl)cc([N+]([O-])=NC#N)c2O1` [Example 4], for which the “Pr: activity against wheat brown rust” value in test [2] came out at 2. In test [3], the “Pvp: direct protectant activity” value stood at 2. Besides, the “Ln: activity against wheat leafspot” value in test [4] is 1.

For `CC1Oc2c(cc(Cl)cc2[N+]([O-])=NC#N)C1C` (stereo not shown) [Example 5], in test [2], the “Pr: activity against wheat brown rust” value is 2. The “Pvp: direct protectant activity” value in [3] was found to be 2. In test [7], the “Eg: activity against barley powdery mildew” value (“Eg: activity” for short) was 1. Moreover, the “Ln: activity against wheat leafspot” value in [4] was 1. In test [8], the “Other: Pva, antisporulant activity against vine downy mildew” value (“Other: Pva, antisporulant activity” below) came out at 2.

For `CC1Cc2cc(Cl)cc([N+]([O-])=NC#N)c2O1` (stereo not shown) [Example 6], the “As: activity against tomato early blight” value in test [1] worked out at 1. Further, the “Pr: activity against wheat brown rust” value in test [2] worked out at 2. Further, in test [3], the “Pvp: direct protectant activity” value worked out at 2. Besides, the “Ln: activity against wheat leafspot” value in [4] was 1.

Regarding `CC1Oc2c(cccc2[N+]([O-])=NC#N)C1C` (stereo not shown) [Example 9], in test [7], the “Eg: activity” value is listed as 1. Besides, the “Ln: activity against wheat leafspot” value in test [4] is 1. The “Other: Pva, antisporulant activity” value in test [8] came out at 1.

For the molecule `N#CN=[N+]([O-])c1cc(Cl)cc2c1OC(CCl)C2` (stereo not shown) [Example 10], the “Pr: activity against wheat brown rust” value in test [2] is given as 2. In addition, in test [3], the “Pvp: direct protectant activity” value is reported as 2. In addition, the “Ln: activity against wheat leafspot” value in [4] is recorded as 1.

Consider `N#CN=[N+]([O-])c1cc(Cl)cc2c1OC(CO)C2` (stereo not shown) [Example 11], for which the “Pr: activity against wheat brown rust” value in test [2] is recorded as 1. Further, the “Pvp: direct protectant activity” value in test [3] is listed as 2.

Regarding `Cc1cc2cccc([N+]([O-])=NC#N)c2o1` [Example 16], the “As: activity against tomato early blight” value in [1] is on record as 2. Also, the “Pr: activity against wheat brown rust” value in [2] worked out at 1. Further, the “Pvp: direct protectant activity” value in test [3] is listed as 2. For the same molecule, the “activity against Pvt” value in [5] is recorded as “high activity”. In test [6], the “Bcp: direct protectant activity” value is on record as 2. Besides, the “activity against Bcp” value in test [6] (secondary screening) is listed as “high activity”.

In the case of `N#CN=[N+]([O-])c1cccc2c3c(oc12)CCCC3` [Example 17], in test [1], the “As: activity against tomato early blight” value stood at 1. In test [9], the “activity against the nematodes, water screen” value is on record as “activity against the nematodes”. Also, in [2], the “Pr: activity against wheat brown rust” value was found to be 1. Further, the “Pvp: direct protectant activity” value in test [3] is reported as 2. Further, the “Ln: activity against wheat leafspot” value in test [4] is listed as 1. Further, the “activity against the nematodes, soil drench test” value in [10] is recorded as “activity against the nematodes”.

In the case of `Cc1oc2c([N+]([O-])=NC#N)cccc2c1C` [Example 18], in [1], the “As: activity against tomato early blight” value was 2. In addition, the “Pr: activity against wheat brown rust” value in test [2] was 2. Further, in test [3], the “Pvp: direct protectant activity” value is reported as 2. Also, in test [7], the “Eg: activity” value is 1.

Turning to `Cc1cc2cc([N+]([O-])=NC#N)ccc2o1` [Example 23], in [1], the “As: activity against tomato early blight” value came out at 1. Moreover, the MIC in [9] (Meloidogyne graminicola, water screen, read-out: minimum inhibitory concentration, water screen) is 0.53 mg/L (≈ 2.63 µM). Moreover, the “activity against the nematodes, water screen” value in [9] was “activity against the nematodes”. In test [2], the “Pr: activity against wheat brown rust” value is on record as 2. The “Eg: activity” value in test [7] came out at 1. Further, in test [10], the “activity against the nematodes, soil drench test” value is listed as “activity against the nematodes”. In test [8], the “Other: Pva, antisporulant activity” value is recorded as 2.

For the molecule `N#CN=[N+]([O-])c1cc(Cl)cc2c1OCC=C2` [Example 26], the “Pr: activity against wheat brown rust” value in [2] was 1. Further, in [3], the “Pvp: direct protectant activity” value is on record as 2. Also, in test [7], the “Eg: activity” value amounted to 2. Besides, the “activity against Pvt” value in test [5] is “high activity”. Further, the “Bcp: direct protectant activity” value in [6] worked out at 2. The “Other: Pva, antisporulant activity” value in test [8] was determined as 2.

With `CC1(C)C=Cc2cc(F)cc([N+]([O-])=NC#N)c2O1` [Example 29], the “Eg: activity” value in test [7] is on record as 1. The “Other: Pva, antisporulant activity” value in test [8] worked out at 2.
